≈ marks a conversion by molar mass, not a printed value.
Columns and labels:
[1] = system: Escherichia coli; experiment: Antibacterial activity against Escherichia coli ATCC 25922; assay type: functional
[2] = system: Staphylococcus aureus; experiment: Antibacterial activity against Staphylococcus aureus ATCC 29213; assay type: functional
[3] = system: Enterococcus faecalis; experiment: Antibacterial activity against Enterococcus faecalis ATCC 29212; assay type: functional
[4] = system: Mycobacterium tuberculosis; experiment: Antibacterial activity against Mycobacterium tuberculosis H37Rv; assay type: functional
[5] = system: Mycolicibacterium smegmatis; experiment: Antibacterial activity against Mycobacterium smegmatis ATCC 19420; assay type: functional
[6] = system: Pseudomonas aeruginosa; experiment: Antibacterial activity against Pseudomonas aeruginosa ATCC 27853; assay type: functional
[7] = system: Haemophilus influenzae; experiment: Antibacterial activity against Haemophilus influenzae ATCC 49247; assay type: functional
[8] = system: Staphylococcus epidermidis; experiment: Antibacterial activity against Staphylococcus epidermidis ATCC 12228; assay type: functional
[9] = system: Streptococcus pneumoniae; experiment: Antibacterial activity against Streptococcus pneumoniae ATCC 49619; assay type: functional
[10] = system: Acinetobacter baumannii; experiment: Antibacterial activity against Acinetobacter baumannii NCTC 13420; assay type: functional
[11] = system: HepG2; experiment: Cytotoxicity against human HepG2 cells after 24 hrs by CellTiter-Glo assay; assay type: cell-based; conditions: HepG2, 24 h
[12] = organism: Homo sapiens; experiment: Inhibition of human topoisomerase-2-mediated decatenation at 100 uM relative to control
[13] = biological target: T1, DNA gyrase subunit A/DNA gyrase subunit B (Mycobacterium tuberculosis (strain ATCC 25618 / H37Rv), UniProt P9WG45+P9WG47); experiment: Inhibition of Mycobacterium tuberculosis DNA gyrase activity; assay type: protein-complex assay
T1 sequence (P9WG45 whole entry): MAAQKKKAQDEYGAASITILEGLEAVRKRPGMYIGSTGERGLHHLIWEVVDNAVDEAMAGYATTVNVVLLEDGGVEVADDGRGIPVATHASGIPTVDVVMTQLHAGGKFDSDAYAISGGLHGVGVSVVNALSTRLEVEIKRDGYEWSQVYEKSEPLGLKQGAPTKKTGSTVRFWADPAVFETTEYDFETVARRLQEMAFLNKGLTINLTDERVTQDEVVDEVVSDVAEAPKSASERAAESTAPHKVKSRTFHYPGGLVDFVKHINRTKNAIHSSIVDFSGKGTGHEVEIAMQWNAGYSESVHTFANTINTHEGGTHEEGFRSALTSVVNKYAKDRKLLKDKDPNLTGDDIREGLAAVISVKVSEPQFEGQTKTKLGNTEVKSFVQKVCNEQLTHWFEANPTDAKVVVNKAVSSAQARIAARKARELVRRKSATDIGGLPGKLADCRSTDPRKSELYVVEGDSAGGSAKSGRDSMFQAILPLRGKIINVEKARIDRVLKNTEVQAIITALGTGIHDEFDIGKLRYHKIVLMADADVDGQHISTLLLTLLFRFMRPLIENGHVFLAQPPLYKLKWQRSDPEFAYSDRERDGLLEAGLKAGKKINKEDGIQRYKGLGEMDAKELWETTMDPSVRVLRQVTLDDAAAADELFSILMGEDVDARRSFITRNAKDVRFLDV
T1 sequence (P9WG47 whole entry): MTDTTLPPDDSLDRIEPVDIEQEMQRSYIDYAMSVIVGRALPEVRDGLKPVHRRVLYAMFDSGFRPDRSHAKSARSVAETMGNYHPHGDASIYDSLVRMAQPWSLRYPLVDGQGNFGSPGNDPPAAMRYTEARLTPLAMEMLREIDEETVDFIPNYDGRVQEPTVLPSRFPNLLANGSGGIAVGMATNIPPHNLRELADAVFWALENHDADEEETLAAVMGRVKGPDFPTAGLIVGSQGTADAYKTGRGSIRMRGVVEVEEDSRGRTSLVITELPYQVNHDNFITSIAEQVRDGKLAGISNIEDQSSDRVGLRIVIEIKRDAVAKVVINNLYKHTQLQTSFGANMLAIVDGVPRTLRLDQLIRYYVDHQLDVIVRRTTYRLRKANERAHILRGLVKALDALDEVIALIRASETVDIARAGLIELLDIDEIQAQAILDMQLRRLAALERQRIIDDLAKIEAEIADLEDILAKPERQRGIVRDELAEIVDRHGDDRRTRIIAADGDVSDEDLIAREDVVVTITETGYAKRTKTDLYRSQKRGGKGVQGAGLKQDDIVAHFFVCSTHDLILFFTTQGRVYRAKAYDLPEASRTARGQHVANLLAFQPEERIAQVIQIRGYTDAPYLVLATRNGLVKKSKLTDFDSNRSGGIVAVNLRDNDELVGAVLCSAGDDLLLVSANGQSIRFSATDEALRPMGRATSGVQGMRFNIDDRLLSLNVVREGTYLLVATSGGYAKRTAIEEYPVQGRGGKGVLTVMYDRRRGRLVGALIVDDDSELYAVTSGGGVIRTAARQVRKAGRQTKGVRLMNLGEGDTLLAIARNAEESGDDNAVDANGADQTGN

[14] = biological target: T1, DNA gyrase subunit A/DNA gyrase subunit B; experiment: Inhibition of Mycobacterium tuberculosis DNA gyrase ATPase activity; assay type: protein-complex assay
[15] = system: Streptococcus pneumoniae; experiment: Antibacterial activity against Streptococcus pneumoniae ATCC 49619 by agar dilution method; assay type: functional
[16] = system: Staphylococcus epidermidis; experiment: Antibacterial activity against Staphylococcus epidermidis ATCC 12228 by agar dilution method; assay type: functional
[17] = system: Mycobacterium tuberculosis; experiment: Antibacterial activity against Mycobacterium tuberculosis H37Rv measured after 5 days by resazurin-dye based microplate assay; assay type: functional; conditions: 120 h
[18] = system: Haemophilus influenzae; experiment: Antibacterial activity against Haemophilus influenzae ATCC 49247 by agar dilution method; assay type: functional
[19] = system: Pseudomonas aeruginosa; experiment: Antibacterial activity against Pseudomonas aeruginosa ATCC 27853 by agar dilution method; assay type: functional
[20] = system: Enterococcus faecalis; experiment: Antibacterial activity against Enterococcus faecalis ATCC 29212 by agar dilution method; assay type: functional

| SMILES | MIC [1] | MIC [2] | MIC [3] | MIC [4] | MIC [5] | other results |
| --- | --- | --- | --- | --- | --- | --- |
| CNc1cc(F)cc2c1[nH]c1nc(CNC(=O)c3ocnc3C)nc(N3CCC(CN)C3)c12 (centres undefined) | 8 µg/mL (≈ 17.7 µM) | 8 µg/mL (≈ 17.7 µM) | 0.5 µg/mL (≈ 1.1 µM) | 0.015 µg/mL (≈ 0.0331 µM) | 0.03 µg/mL (≈ 0.0663 µM) | – |
| CNc1cc(F)cc2c1[nH]c1nc(CNC(=O)c3cnc(C)o3)nc(N3CCC(N(C)C)C3)c12 (centres undefined) | 1 µg/mL (≈ 2.14 µM) | 1 µg/mL (≈ 2.14 µM) | 0.015 µg/mL (≈ 0.0322 µM) | – | 0.002 µg/mL (≈ 0.00429 µM) | – |
| CNc1cc(F)cc2c1[nH]c1nc(CNC(=O)c3cccc(C(=O)OC)n3)nc(N3CCC(CN)C3)c12 (centres undefined) | 32 µg/mL (≈ 63.2 µM) | 8 µg/mL (≈ 15.8 µM) | 1 µg/mL (≈ 1.97 µM) | – | 0.06 µg/mL (≈ 0.118 µM) | – |
| CNc1cc(F)cc2c1[nH]c1nc(CNC(=O)c3cnco3)nc(N3CCC(NC)C3)c12 (centres undefined) | 4 µg/mL (≈ 9.12 µM) | 8 µg/mL (≈ 18.2 µM) | 0.5 µg/mL (≈ 1.14 µM) | 0.03 µg/mL (≈ 0.0684 µM) | 0.5 µg/mL (≈ 1.14 µM) | MIC [6]: > 64 µg/mL; MIC [7]: 4 µg/mL (≈ 9.12 µM); MIC [8]: 2 µg/mL (≈ 4.56 µM); MIC [9]: 2 µg/mL (≈ 4.56 µM); MIC [10]: > 64 µg/mL; IC50 [11]: > 32 µg/mL |
| CNc1cc(F)cc2c1[nH]c1nc(CNC(=O)c3cocn3)nc(N3CCC(N)C3)c12 (centres undefined) | 128 µg/mL (≈ 302 µM) | 8 µg/mL (≈ 18.8 µM) | 0.06 µg/mL (≈ 0.141 µM) | – | 0.12 µg/mL (≈ 0.283 µM) | MIC [6]: 128 µg/mL (≈ 302 µM); MIC [7]: 1 µg/mL (≈ 2.36 µM); inhibition [12]: 5.8%; MIC [8]: 1 µg/mL (≈ 2.36 µM); MIC [9]: 0.12 µg/mL (≈ 0.283 µM); IC50 [13]: 5 nM; MIC [10]: 16 µg/mL (≈ 37.7 µM); IC50 [14]: 25 nM; IC50 [11]: 10.8 µg/mL (≈ 25.5 µM) |
| CNc1cc(F)cc2c1[nH]c1nc(CNC(=O)c3ccc4cc[nH]c4n3)nc(N3CCC(N(C)C)C3)c12 (centres undefined) | 4 µg/mL (≈ 7.97 µM) | 1 µg/mL (≈ 1.99 µM) | 0.5 µg/mL (≈ 0.997 µM) | 0.25 µg/mL (≈ 0.498 µM) | 0.25 µg/mL (≈ 0.498 µM) | – |
| CNc1cc(F)cc2c1[nH]c1nc(CNC(=O)c3ocnc3C)nc(N3CCC(NC)C3)c12 (centres undefined) | 4 µg/mL (≈ 8.84 µM) | 4 µg/mL (≈ 8.84 µM) | 0.25 µg/mL (≈ 0.552 µM) | 0.03 µg/mL (≈ 0.0663 µM) | 0.06 µg/mL (≈ 0.133 µM) | – |
| CNc1cc(F)cc2c1[nH]c1nc(CNC(=O)c3cccnc3)nc(N3CCC(N)C3)c12 (centres undefined) | 8 µg/mL (≈ 18.4 µM) | 32 µg/mL (≈ 73.7 µM) | 0.25 µg/mL (≈ 0.575 µM) | – | – | – |
| CNc1cc(F)cc2c1[nH]c1nc(CNC(=O)c3ocnc3C)nc(N3CCC(N(C)C)C3)c12 (centres undefined) | 2 µg/mL (≈ 4.29 µM) | 1 µg/mL (≈ 2.14 µM) | 0.03 µg/mL (≈ 0.0643 µM) | 0.06 µg/mL (≈ 0.129 µM) | 0.06 µg/mL (≈ 0.129 µM) | – |
| CNc1cc(F)cc2c1[nH]c1nc(CN)nc(N3CCC(N)C3)c12 (centres undefined) | 8 µg/mL (≈ 24.3 µM) | 8 µg/mL (≈ 24.3 µM) | 8 µg/mL (≈ 24.3 µM) | – | – | – |
| NNC(=O)c1ccncc1 [ISONIAZID] | – | – | – | – | 4 µg/mL (≈ 29.2 µM) | – |
| CO[C@H]1/C=C/O[C@@]2(C)Oc3c(C)c(O)c4c(O)c(c(/C=N/N5CCN(C)CC5)c(O)c4c3C2=O)NC(=O)/C(C)=C\C=C\[C@H](C)[C@H](O)[C@@H](C)[C@@H](O)[C@@H](C)[C@H](OC(C)=O)[C@@H]1C [RIFAMPIN] | – | – | – | – | 16 µg/mL (≈ 19.4 µM) | – |
| CNc1cc(F)cc2c1[nH]c1nc(CNC(=O)c3cnco3)nc(N3CCC(CN)C3)c12 (centres undefined) | 4 µg/mL (≈ 9.12 µM) | 4 µg/mL (≈ 9.12 µM) | 0.12 µg/mL (≈ 0.274 µM) | 0.03 µg/mL (≈ 0.0684 µM) | 0.06 µg/mL (≈ 0.137 µM) | – |
| COc1c(N2C[C@@H]3CCCN[C@@H]3C2)c(F)cc2c(=O)c(C(=O)O)cn(C3CC3)c12 [MOXIFLOXACIN] | – | – | – | – | 0.03 µg/mL (≈ 0.0747 µM) | – |
| CNc1cc(F)cc2c1[nH]c1nc(CNC(=O)c3cccnn3)nc(N3CCC(N)C3)c12 (centres undefined) | 4 µg/mL (≈ 9.19 µM) | 8 µg/mL (≈ 18.4 µM) | 0.12 µg/mL (≈ 0.276 µM) | – | – | – |
| CO[C@@H]1[C@@H](OC(N)=O)[C@@H](O)[C@H](Oc2ccc3c(O)c(NC(=O)c4ccc(O)c(CC=C(C)C)c4)c(=O)oc3c2C)OC1(C)C [NOVOBIOCIN] | > 64 µg/mL | 0.06 µg/mL (≈ 0.0979 µM) | – | – | 1 µg/mL (≈ 1.63 µM) | MIC [15]: 0.5 µg/mL (≈ 0.816 µM); MIC [16]: 0.06 µg/mL (≈ 0.0979 µM); MIC [17]: 4 µg/mL (≈ 6.53 µM); MIC [18]: 0.5 µg/mL (≈ 0.816 µM); MIC [19]: > 64 µg/mL; IC50 [11]: > 32 µg/mL; MIC [20]: 4 µg/mL (≈ 6.53 µM) |
| CNc1cc(F)cc2c1[nH]c1nc(CNC(=O)c3cnco3)nc(N3CCC(N(C)C)C3)c12 (centres undefined) | 0.25 µg/mL (≈ 0.552 µM) | 0.5 µg/mL (≈ 1.1 µM) | 0.015 µg/mL (≈ 0.0331 µM) | 0.06 µg/mL (≈ 0.133 µM) | 0.06 µg/mL (≈ 0.133 µM) | MIC [6]: > 64 µg/mL; MIC [7]: 4 µg/mL (≈ 8.84 µM); MIC [8]: 0.12 µg/mL (≈ 0.265 µM); MIC [9]: 0.12 µg/mL (≈ 0.265 µM); MIC [10]: 1 µg/mL (≈ 2.21 µM); IC50 [11]: > 16 µg/mL |
| CNc1cc(F)cc2c1[nH]c1nc(CNC(=O)c3cocn3)nc(N3CCC(NC)C3)c12 (centres undefined) | 16 µg/mL (≈ 36.5 µM) | 16 µg/mL (≈ 36.5 µM) | 0.25 µg/mL (≈ 0.57 µM) | 0.12 µg/mL (≈ 0.274 µM) | 0.5 µg/mL (≈ 1.14 µM) | – |
| CNc1cc(F)cc2c1[nH]c1nc(CNC(=O)c3ccco3)nc(N3CCC(N(C)C)C3)c12 (centres undefined) | 0.5 µg/mL (≈ 1.11 µM) | 0.25 µg/mL (≈ 0.554 µM) | 0.12 µg/mL (≈ 0.266 µM) | 0.03 µg/mL (≈ 0.0664 µM) | 0.06 µg/mL (≈ 0.133 µM) | – |
| CNc1cc(F)cc2c1[nH]c1nc(CNC(=O)c3cnco3)nc(N3CCC(N)C3)c12 (centres undefined) | 4 µg/mL (≈ 9.42 µM) | 8 µg/mL (≈ 18.8 µM) | 1 µg/mL (≈ 2.36 µM) | 0.25 µg/mL (≈ 0.589 µM) | 0.25 µg/mL (≈ 0.589 µM) | MIC [6]: 32 µg/mL (≈ 75.4 µM); MIC [7]: 1 µg/mL (≈ 2.36 µM); inhibition [12]: 21.2%; MIC [8]: 1 µg/mL (≈ 2.36 µM); MIC [9]: 1 µg/mL (≈ 2.36 µM); IC50 [13]: 10 nM; MIC [10]: 8 µg/mL (≈ 18.8 µM); IC50 [14]: 59 nM; IC50 [11]: > 16 µg/mL |
| CNc1cc(F)cc2c1[nH]c1nc(CNC(=O)c3cnc(C)o3)nc(N3CCC(CN)C3)c12 (centres undefined) | 4 µg/mL (≈ 8.84 µM) | 8 µg/mL (≈ 17.7 µM) | 0.25 µg/mL (≈ 0.552 µM) | 0.015 µg/mL (≈ 0.0331 µM) | 0.12 µg/mL (≈ 0.265 µM) | – |

— ChEMBL document CHEMBL4229544, “Design, synthesis and antibacterial properties of pyrimido[4,5-b]indol-8-amine inhibitors of DNA gyrase” (Bioorg Med Chem Lett, 2018)
